Data set [1] in a line: Antileukemic activity against human M9-ENL1 cells assessed as increase in apoptotic cell level after 24 hrs by Annexin V/propidium iodide/7-AAD based FACS analysis. In kind it is functional. Conditions: M9-ENL1, 24 h. A general note: In flow cytometry, cells or beads pass a laser one at a time; call rule not given here.
Data set [2] is described as follows: Potency index, ration of parthenolide EC50 to compound EC50 for human M9-ENL1 cells. Type of data set: functional.
Data set [3] can be described thus: Cmax in BALB/c mouse at 271.2 mg/kg, po by LC/MS/MS analysis. In kind it is ADME, organism-based. Also on record: dose 271.2 mg/kg, route oral. Conditions: in vivo.
A short description of data set [4]: Tmax in BALB/c mouse at 271.2 mg/kg, po by LC/MS/MS analysis. Type of data set: ADME, organism-based. The following applies: in vivo.
Data set [5] is described as follows: Apparent elimination half life in BALB/c mouse at 271.2 mg/kg, po by LC/MS/MS analysis. Type of data set: ADME, organism-based. The following applies: in vivo.
A short description of data set [6]: AUC in BALB/c mouse at 200 mg/kg, po by LC/MS/MS analysis. Type of data set: ADME, organism-based. Conditions: in vivo.
Data set [7] in a line: Total clearance in BALB/c mouse at 27.1 mg/kg, iv or 271.2 mg/kg, po by LC/MS/MS analysis. Type of data set: ADME, organism-based. The following applies: in vivo.
Data set [8] can be described thus: Oral bioavailability in BALB/c mouse at 271.2 mg/kg by LC/MS/MS analysis. In kind it is ADME, organism-based. Conditions: in vivo.
Data set [9] can be described thus: Drug uptake in BALB/c mouse blood at 271.2 mg/kg, po after 15 mins by LC/MS/MS analysis. The following applies: in vivo, 0.25 h. In kind it is ADME, organism-based.
A short description of data set [10]: Drug uptake in BALB/c mouse Plasma at 271.2 mg/kg, po after 15 mins by LC/MS/MS analysis. Type of data set: ADME, organism-based. Conditions: in vivo, 0.25 h.
The nature of data set [11]: Cmax in BALB/c mouse at 200 mg/kg, po by LC/MS/MS analysis. In kind it is ADME, organism-based. Also on record: dose 200 mg/kg, route oral. The following applies: in vivo.
A short description of data set [12]: Tmax in BALB/c mouse at 200 mg/kg, po by LC/MS/MS analysis. Type of data set: ADME, organism-based. Conditions: in vivo.
Data set [13] is described as follows: Apparent elimination half life in BALB/c mouse at 200 mg/kg, po by LC/MS/MS analysis. Type of data set: ADME, organism-based. Conditions: in vivo.
Data set [14] in a line: Total clearance in BALB/c mouse at 20 mg/kg, iv or 200 mg/kg, po by LC/MS/MS analysis. Type of data set: ADME, organism-based. The following applies: in vivo.
Data set [15] can be described thus: Oral bioavailability in BALB/c mouse at 200 mg/kg by LC/MS/MS analysis. The following applies: in vivo. In kind it is ADME, organism-based.
The nature of data set [16]: Drug uptake in BALB/c mouse blood at 200 mg/kg, po after 15 mins by LC/MS/MS analysis. Type of data set: ADME, organism-based. Conditions: in vivo, 0.25 h.

Data on seven compounds can be found in ChEMBL document CHEMBL3875217, “Identification of a melampomagnolide B analog as a potential lead molecule for treatment of acute myelogenous leukemia” (Bioorg Med Chem, 2017).

In general, EC50 refers to the concentration giving half of the maximal effect. The term Cmax denotes the maximum level reached in the sampled fluid or tissue. What is called Tmax is the time from dosing to the highest level. In general, AUC refers to concentration integrated over time.

Take `C=C1C(=O)O[C@H]2[C@H]1CC/C(COC(=O)NCc1nc3ccccc3[nH]1)=C\CC[C@@]1(C)O[C@@H]21`: in data set [1], the concentration giving a half-maximal response (EC50) was 3900 nM.

Regarding `C=C1C(=O)O[C@H]2[C@H]1CC/C(COC(=O)n1ccnc1)=C\CC[C@@]1(C)O[C@@H]21`, in [1], the EC50 worked out at 900 nM. For the same compound, the “Ratio EC50” value in data set [2] turned out to be 8. The compound further displayed a peak concentration (Cmax) in data set [3] of 10.6 µM. Also, the Tmax in data set [4] was 0.502 h. Further, the “betat1/2(app)” value in [5] came out at 92.3 min. Also, the AUC in data set [6] was 2137.5 µmol·min/L. The same compound had a clearance in data set [7] of 200 mL/min/kg. In data set [8], this compound returned an F of 45.5%. The Drug uptake entry in data set [9] and in [10] was “Active” each time.

For the compound `C=C1C(=O)O[C@H]2[C@H]1CC/C(COC(=O)n1cc(C)nc1CC)=C\CC[C@@]1(C)O[C@@H]21`, the EC50 in data set [1] came out at 1400 nM.

Take `C=C1C(=O)O[C@H]2[C@H]1CC/C(COC(=O)Nc1nc3ccccc3[nH]1)=C\CC[C@@]1(C)O[C@@H]21`: the EC50 in data set [1] amounted to 1600 nM.

As to `C=C1C(=O)O[C@H]2[C@H]1CC/C(COC(=O)n1ccnc1C)=C\CC[C@@]1(C)O[C@@H]21`, the EC50 in data set [1] came out at 2100 nM.

On to `C=C1C(=O)O[C@@H]2[C@H]3O[C@]3(C)CC/C=C(\C)CC[C@@H]12`, for which, in data set [1], the concentration giving a half-maximal response (EC50) was found to be 7000 nM.

In the case of `C=C1C(=O)O[C@H]2[C@H]1CC/C(CO)=C\CC[C@@]1(C)O[C@@H]21`, the EC50 in data set [1] was found to be 15500 nM. For the same compound, the Cmax in data set [11] worked out at 4.5 µM. Further, the time to peak (Tmax) in [12] is 2 h. The “betat1/2(app)” value in data set [13] was 61.8 min. In [6], this compound came in with an AUC of 868.3 µmol·min/L. In addition, the clearance in data set [14] was determined as 70 mL/min/kg. In data set [15], this compound returned an F of 6.7%. Moreover, the Drug uptake entry in [16] is reported as “Active”.
